Assay [1] has as its system cut roses. The experiment in a line: Vase life of cut roses after 14 days simulated dry refrigerated transport (Examples 1 and 2). The assay is classed as in vivo, rose. Particulars: flower heads dipped 3 s in 80 ppm BA, 14 days dry transport at 2° C. As for the experimental part:
Freshly cut red roses (Red Desire') were obtained from a greenhouse in the Netherlands. These flowers were randomly divided into three different sets . Within 4 hours of cutting, one set of flowers (set A) was subjected to a preservation treatment that involved dipping of the flower heads into an aqueous solution of 80 ppm 6-benzylaminopurine (BA) in tap water for 3 seconds. Immediately after the preservation treatment, each set of flowers was bunched and sleeved (6 flowers per sleeved bunch) after the ends of the flower stems had been cut off, and in total 108 flowers of each set were kept 24 hours at 2° C. under dark conditions in buckets (54 stems per bucket) with the flower stems immersed in 2 liters of water containing 1 ml/l of a flower pre-treatment product ([…]® Grow 20). Following this pre-treatment, the sleeved flower bunches of set A were removed from the buckets and packaged without any external water supply in a carton box (l×b×h=1.0×0.4×0.2 m). The carton box contained 18 sleeved flower bunches. One of the other two sets of flowers (Control) was packaged in the same way. The remaining set of flowers (Reference) was not packaged dry into a carton box, but immediately subjected to the sequence of storage and display conditions described in Table 1. [table] Before the refrigerated storage and the home display the ends of the flower stems were cut off. The packaged flowers (sleeved and in a carton box) belonging to Set A and the Control set were subjected to simulated refrigerated transport under dry, dark conditions for 14 days at 2° C. before also being subjected to the sequence of storage and display conditions described in Table 1. Before the refrigerated storage stage the BA concentrations in the flower heads were analyzed. In addition, the vase life of the flowers was assessed by an expert panel during the home display period. Example 1 was repeated, except that this time, instead of using cut roses obtained from a Dutch green house, cut roses that had been air transported under dry conditions from Kenya to the Netherlands were used. Three different types of cut red roses were used in this study, namely 'Hot Blood', 'Rhodos' and 'Incredible'.

The subject of assay [2] is cut roses. The experiment in a line: Vase life and leaf quality after 9 days simulated dry transport (Examples 3 and 4). As to conditions: for Vase life: dipped in 80 ppm BA, 9 days dry transport; for Leaf quality: visual score after 12 days on the vase, 1=poor, 5=good. The assay is classed as in vivo, rose. The text has this:
Example 1 was repeated, except that this time no Reference set was used, i.e. the study used two sets of flowers that were both transported without water supply (dry). Furthermore, the cut roses used in the study had been air transported under dry conditions from Colombia to the Netherlands. Bunches containing 4 flowers of each of three different types of roses (‘Red Intuition’ (red), ‘Citran’ (yellow), ‘Vendela’ (white) were used in this study. The duration of simulated transportation was reduced from 14 to 9 days and the duration of shop display was increased from 2 to 3 days.
Besides the vase life of the flowers the expert panel also scored visual leaf quality after 12 days on the vase (1=poor, 5=good). The BA concentration in the flower heads was not analyzed in this study.
Example 3 was repeated, except that this time the following three different types of roses were used in the study: • ‘Freedom’ (red) • ‘Bonanza’ (peach) • ‘Sandra’ (pink)

The test system of assay [3] is flower spikes of gladiolus and carnation. As to conditions: stems immersed in 10, 30 and 75 ppm solution; spikes previously wilted dry for 4 hours; cited from earlier work.
Assay [4] relates to cut red roses. Kind of assay: Vase life, dipped/dry versus BA in bucket water, 8 days at 2° C. (Example 6). The assay is classed as in vivo, rose. As for the experimental part:
Example 5 was repeated, except that this time the sets of cut flowers were kept under refrigerated and dark conditions for 8 days instead of 24 hours.

For assay [5], the system named is cut red roses. Kind of assay: Vase life, dipped/dry versus BA in bucket water, 24 hours at 2° C. (Example 5). The assay is classed as in vivo, rose. An excerpt: Three different types of cut red roses were used in this study, namely ‘Hot Blood’, ‘Rhodos’ and ‘Incredible’. For each type flowers were randomly divided into four different sets.
One set of flowers (set A) was subjected to a preservation treatment that involved dipping of the flower heads into an aqueous solution of 80 ppm 6-benzylaminopurine (BA) in tap water for 3 seconds.
Immediately after the preservation treatment of set A, each set of flowers was bunched and sleeved (10 flowers per sleeved bunch) after the ends of the flower stems had been cut off, and in total 20 flowers of each set were kept for 4 hours at 20° C. under dark conditions in buckets (60 stems per bucket) with the flower stems immersed in 2 liters of water containing 1 ml/l of a flower pre-treatment product (Chrysal® Grow 20).
Following this pre-treatment, the sleeved flower bunches of set A were removed from the buckets and packaged without any external water supply in a carton box (l×b×h=1.0×0.4×0.2 m). The carton box contained 6 sleeved flower bunches.
One of the other three sets of non-dipped flowers(Control) was packaged in the same way, i.e. in carton boxes without external water supply.
The remaining two sets of non-dipped flowers (sets B and C) were introduced into buckets (20 stems per bucket) that each contained 2 liters of water.
The bucket water of set B contained 7 ppm BA. The bucket water of set C contained 7 ppm BA as well as 5 ml/l of Chrysal® Clear Professional 2 (CCP2). This product is based on sugars and acidifier, while biocides are present to protect these active ingredients against bacterial attack.
The four sets of roses were kept at 2° C. under dark conditions for 24 hours, following which each set was transferred into buckets (60 stems per bucket) that contained 2 liters of water to which 5 ml/l Chrysal® Clear Professional 2 had been added. Before introducing the cut flowers into the buckets, the ends of the flower stems were cut off. The buckets holding the sleeved cut flowers were kept for 4 days under dark, refrigerated (2° C.) conditions, and subsequently for 2 days at 20° C. under daylight conditions (12 hours 1000 lux and 12 hours dark).
Next, for each of the three different type of cut red roses the two bunches of 10 cut flowers from each of the sets were introduced in vases, each holding 1 liter of water to which 10 g/l Chrysal® Clear had previously been added. Before introducing the cut flowers into the vases, the ends of the flower stems were cut off. The vases holding the flowers were kept at 20° C. under daylight conditions (12 hours 1000 lux and 12 hours dark).
The quality of the cut flowers was assessed at regular intervals by an expert panel and from these assessments the average vase life was determined for the cut flowers of each of the 4 sets.
The letters behind the numerical scores in Table 8 indicate to which extent the difference between the 4 scores for a given set of cut flowers are statistically significant (at a P-value of 0.05). Scores that are followed by the same latter are not statistically significant.

The subject of assay [6] is cut red roses. The experiment in a line: Colour retention of red roses after 11 days on the vase (Examples 1 and 2). The assay is classed as in vivo, rose. As to conditions: dipped in 80 ppm BA.
Another assay has as its system cut rose flowers. Particulars: sprayed or held in solution prior to simulated home conditions; cited from earlier work.
The subject of the next assay is rose flower buds. As to conditions: 350 mg/L (ca. 1 mM) solution; preliminary experiments, data not shown; cited from earlier work.

Take `c1ccc(CNc2ncnc3nc[nH]c23)cc1` [BA, 6-benzylaminopurine]: the “Vase life” value was 13.9 days in the assay with cut roses [1] ('Hot Blood' (Kenya)); 13.0 days with cut roses [1] ('Incredible' (Kenya)); 12.8 days in the assay with cut roses [1] ('Red Desire'); 14.9 days in the assay on cut roses [1] ('Rhodos' (Kenya)); 14.5 days with cut roses [2] ('Bonanza' (peach)); 12.5 days in the assay with cut roses [2] ('Citran' (yellow, Colombia)). The “Vase life” value in the assay on cut roses [2] ('Freedom' (red)) is 18.8 days; with cut roses [2] ('Red Intuition' (red, Colombia)), 9.6 days; with cut roses [2] ('Sandra' (pink)) it was 17.6 days; in the assay with cut roses [2] ('Vendela' (white, Colombia)) it was 13.0 days; with cut red roses [4] ('Hot Blood', non-dipped, wet, stems in bucket water containing 7 ppm BA, 8 days at 2° C.), 7.3 days; in the assay with cut red roses [4] ('Hot Blood', set A, flower heads dipped in 80 ppm BA, dry in carton box 8 days at 2° C.) it was 11.8 days. Besides, the “Vase life” value in the assay on cut red roses [4] ('Incredible', non-dipped, wet, stems in bucket water containing 7 ppm BA, 8 days at 2° C.) was determined as 10.4 days; in the assay with cut red roses [4] ('Incredible', set A, flower heads dipped in 80 ppm BA, dry in carton box 8 days at 2° C.), 14.8 days; in the assay with cut red roses [4] ('Rhodos', non-dipped, wet, stems in bucket water containing 7 ppm BA, 8 days at 2° C.) it was 8.2 days; in the assay on cut red roses [4] ('Rhodos', set A, flower heads dipped in 80 ppm BA, dry in carton box 8 days at 2° C.), 13.5 days; in the assay on cut red roses [5] ('Hot Blood', non-dipped, wet, stems in bucket water containing 7 ppm BA, 24 hours at 2° C.), 11.2 days; in the assay on cut red roses [5] ('Hot Blood', set A, flower heads dipped in 80 ppm BA, dry in carton box 24 hours at 2° C.), 16.2 days. Besides, the “Vase life” value in the assay on cut red roses [5] ('Incredible', non-dipped, wet, stems in bucket water containing 7 ppm BA, 24 hours at 2° C.) was 11.1 days; with cut red roses [5] ('Incredible', set A, flower heads dipped in 80 ppm BA, dry in carton box 24 hours at 2° C.), 17.2 days; with cut red roses [5] ('Rhodos', non-dipped, wet, stems in bucket water containing 7 ppm BA, 24 hours at 2° C.), 9.4 days; in the assay with cut red roses [5] ('Rhodos', set A, flower heads dipped in 80 ppm BA, dry in carton box 24 hours at 2° C.) it was 13.9 days. In addition, the Leaf quality in the assay with cut roses [2] (Example 3 (Red Intuition, Citran, Vendela)) is listed as 3.0; with cut roses [2] (Example 4 (Freedom, Bonanza, Sandra)) it was 4.0. Also, the “Effect on vase life of flower spikes” value in assay [3] is “extended the vase life”. Moreover, the “Average vase life of the dipped set versus the non-dipped sets” value with cut red roses [4] ('Hot Blood', P-value of 0.05, 8 days at 2° C.) is “higher than that of the non-dipped sets, but the difference with the control set and set C was not statistically significant”. Also, the “Vase life of the dipped set versus the non-dipped sets” value with cut red roses [4] (two of the rose types ('Rhodos', 'Incredible'), P-value of 0.05, 8 days at 2° C.) is given as “significantly longer vase life”; with cut red roses [5] (each of the rose types, P-value of 0.05, 24 hours at 2° C.), “significantly longer vase life”. The “Colour of the red roses after 11 days on the vase” value with cut red roses [6] ('Hot Blood', control showed blueing/darkening) is on record as “retained most of their original red colour”; with cut red roses [6] ('Incredible', control showed blueing/darkening) it was “retained most of their original red colour”; with cut red roses [6] ('Red Desire', control showed bluing/darkening), “retained most of their original red colour”; in the assay with cut red roses [6] ('Rhodos', control showed blueing/darkening) it was “retained most of their original red colour”. Moreover, the “Effect on rose vase life” value with cut rose flowers is “did not benefit on rose vase life”.

Take `c1coc(CNc2ncnc3[nH]cnc23)c1` [KI, kinetin]: the “Effect on rose vase life” value with cut rose flowers is reported as “did not benefit on rose vase life”.

`C=C1C[C@]23C[C@@]1(O)CC[C@H]2[C@@]12C=C[C@H](O)[C@](C)(C(=O)O1)[C@H]2[C@@H]3C(=O)O` [GA3]: the “Effect on rose flower vase-life when applied as a spray” value in the assay on rose flower buds is “optimal for improving rose flower vase-life”.
